These results are taken from PMC10339762, “Fragment-based drug discovery of small molecule ligands for the human chemokine CCL28” (SLAS discovery : advancing life sciences R & D, 2023).

Each structure is given as a SMILES string. Where only a bound is given, the exact number is not on record here.

What all share (assay type): binding
Experiment [1] deals with T1, CCL28(1-108) (Homo sapiens, UniProt Q9NRJ3).
T1 construct: Uniformly ^15N-labeled CCL28(1-108) and CCL28(4-108) proteins were expressed using a previously described SUMO fusion construct; Smt (SUMO) fusion tag (N, cleaved yes); made in house; host or cells: E. coli BL21(DE3)
T1 sequence (Q9NRJ3 20-127): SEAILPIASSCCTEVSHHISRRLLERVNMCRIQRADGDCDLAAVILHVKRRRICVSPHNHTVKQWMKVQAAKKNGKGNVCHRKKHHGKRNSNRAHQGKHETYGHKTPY
Nature of the experiment: 1H-15N HSQC NMR titration of repurchased fragment hits (hit validation). The settings on record: for Kd: 50 μM CCL28(1-108), fragment 0–6 mM, HSQC at 25 °C, estimated by nonlinear fitting, read-out: Kd (fitting of titration-derived chemical shift perturbation data). The procedure:
NMR samples for fragment screening and titration experiments were prepared using a liquid handling robot designed for and dedicated to sample mixing and loading of NMR sample tubes as previously described, except that 1.7 mm sample tubes were used with sample volumes of 60 μL. All ^1H,^15N HSQC spectra were acquired at 25 °C and 600 MHz on a Bruker Avance III HD NMR spectrometer equipped with a 1.7 mm TCI CryoProbe and SampleJet sample handling robot. NMR data processing was performed in an automated manner, as previously described. Custom Python scripts were used to automate the movement of NMRPipe processing scripts to each experiment directory, run the NMRPipe processing scripts, transfer transformed spectra to a processed data directory, compute HSQC difference spectra, generate HSQC overlay and HSQC difference contour plot files for each sample, perform principal component analysis calculations and K-means cluster analysis on all spectra acquired in each round of fragment screening.
Fragment screening was conducted against 50 μM ^15N-CCL28(1-108) in an iterative multiplexed manner as previously described, except that each chemical fragment was present at a concentration of 500 μM instead of 1mM. A collection of 2,678 fragments comprised of the Core 1000 (Maybridge), Zenobia 1 (Zenobia), L5700 (Targetmol), and 3D Shape Diverse (Enamine) libraries were arranged into 12-plex groups for the first iteration. A consistent buffer was used across all NMR samples (50 mM dMES, 150 mM NaCl, 3% v/v DMSO, 0.02% w/v sodium azide, 5% v/v deuterium oxide) for 12-plex, 3-plex, and single compound screening rounds. Principal component analysis (PCA) and difference intensity analysis (DIA) comparisons of a reference (DMSO only) spectrum with each screening spectrum were used to identify potential hits, which were then verified by manual inspection of HSQC overlays and HSQC difference spectra, as previously described. Candidate hits were repurchased and subjected to ^1H-^15N HSQC titration with 50 μM CCL28(1-108) at concentrations ranging from 0–6 mM. Repurchased compound identities were confirmed via 1D ^1H NMR, and purity was determined to be at least 90% via natural abundance ^1H-^13C HSQC. For a subset of validated hits, CCL28 binding was measured in combination with a second fragment, each of which was titrated to a maximum concentration of 3 mM.
Because hits were identified in the primary screen from 2D NMR spectra acquired at a single fragment concentration, evaluating each candidate in terms of CCL28 binding affinity and specificity was essential. HSQC titrations up to a final concentration of 6 mM were performed using repurchased material for each candidate hit. Using the same chemical shift mapping approach employed for sTyr binding (Fig. 1B & C), titration-derived chemical shift perturbation data was used to ascertain and visualize the residues most affected by the addition of each compound. Fragment binding affinities were estimated by nonlinear fitting as previously described. […] While Kd value estimates ranged from ~1 mM to > 10 mM (Fig. 3), the other 13 fragments reproduced HSQC perturbations observed in the primary NMR screen, and PCA clustered them in two groups distinct from the non-hits. […] Four fragments mainly affected residues […], R21, E25, and the side chain of Q69 located in a cleft between the N-loop and α-helix. Another eight fragments largely perturbed residues in the sY binding cleft (Fig. 1C), including I53, which is analogous to V49 of CXCL12, a critical residue in facilitating binding interactions with sY21 of its receptor CXCR4 [18].

Experiment [2] deals with T2, CCL28(4-108) (Homo sapiens, UniProt Q9NRJ3).
T2 construct: Uniformly ^15N-labeled CCL28(1-108) and CCL28(4-108) proteins were expressed using a previously described SUMO fusion construct; Smt (SUMO) fusion tag (N, cleaved yes); made in house; host or cells: E. coli BL21(DE3)
T2 sequence (Q9NRJ3 23-127): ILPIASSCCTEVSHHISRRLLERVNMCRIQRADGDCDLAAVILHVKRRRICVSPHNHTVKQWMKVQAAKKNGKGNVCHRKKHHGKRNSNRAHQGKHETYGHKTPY
Nature of the experiment: Dual-fragment NMR titration. The settings on record: one fragment titrated 0–3 mM into 3 mM of the other, 50 μM CCL28.

The target of experiment [3] is T2, CCL28(4-108). Nature of the experiment: Single-fragment 1H-15N HSQC titration, chemical shift mapping. Conditions: 6 mM fragment, 50 μM CCL28(4-108).

As for `O=C(O)c1ccc2c3c(cccc13)CC2` [ZT0784], the Kd in experiment [1] was 2.3 mM. Further, the “Binding site by chemical shift mapping” value in experiment [1] (HSQC titration up to 6 mM, two potential sites (N-loop/α-helix cleft; sY binding cleft)) was “perturbed residues located in both sites”.
`O=C(O)c1cc2cc(C(F)(F)F)ccc2[nH]1` [TA01.A04.02A03]: in experiment [1], the Kd was above 10 mM.
The same measure, in the same setting: then `Cc1csc(C(C#N)C(=O)c2ccccc2F)n1` (centres unmarked) [E2C02.03 C11.09C10], with above 10 mM.
Still for that read-out and setting: then `O=C(O)c1ccc(-c2cccs2)s1` [CC146001], with 3.2 mM.
As to `OCCCCn1cnc2cc(Cl)c(Cl)cc21` [SPB07625], the “Simultaneous binding of fragment pair” value in experiment [2] is recorded as “can occupy adjoining subsites within the same cleft on the CCL28 surface”. Also, the Kd in experiment [1] was 0.85 mM.
In the case of `O=C(O)c1cc2cc(F)ccc2[nH]1` [ZT0073], the Kd in experiment [1] is above 10 mM.
Same read-out and setting: then `O=C(O)c1cc2ccccc2[nH]1` [ZT1669], with above 10 mM; and `Cc1cccc(C(=O)O)c1O` [ZT0733], with above 10 mM.
Same read-out and setting: next, `Sc1nc2cc(Cl)ccc2o1` [ZT0010]: 1.2 mM.
Take `O=C(O)c1ccc(-c2ccccc2)s1` [CC10501]: the “Residues with largest / strong fragment-induced peak shifts” value in experiment [3] is “I53, S20, and R21, CC10501 additionally yielded strong peak shifts for E25, Q69, and M66”. Moreover, the “Simultaneous binding of fragment pair” value in experiment [2] is listed as “can occupy adjoining subsites within the same cleft on the CCL28 surface”. Moreover, in experiment [1], the Kd is 6.6 mM.
In the case of `Cc1cc(Cl)ccc1S(=O)(=O)Nc1ccon1` [E2C04.04 C11.12C09], the Kd in experiment [1] was above 10 mM.
On the same count and under the same terms, then `O=C(O)/C=C/c1ccccc1` [ZT0754], with above 10 mM; and `O=c1cc(O)c2ccccc2o1` [ZT0262], with above 10 mM.
